Laboratory results from patent US6458783B1, “Non-imidazole benzodiazepine inhibitors of farnesyl protein transferase” (Bristol-Myers Squibb Company, priority 1997, dated 2002).
Where a name gives a salt, the structure may show the parent alone.

NC(CS)CN1CCN(C(=O)c2cccc3ccccc23)Cc2ccccc21 (racemic) (as salt: hydrochloride) [Example 1, (+,−)-1-(2-Amino-3-mercaptopropyl)-2,3,4,5-tetrahydro-4-(naphthalenylcarbonyl)-1H-1,4-benzodiazepine, Monohydrochloride]
melting point: 140 °C
